In patent US11541028B2, “Peptide pharmaceuticals for treatment of NASH and other disorders” (Mederis Diabetes LLC, priority 2018, dated 2023):
Like-named read-outs stand apart in the source and are kept apart here. Numbered stars: 1 amine (or outer) side, 2 acyl side, 3 side chain; on linkers, the order of the positions; unused ones are H or OH. Bridge positions count the residues as written; N and C are the ends. Square brackets hold non-standard residues; d marks the D form. Side chains are listed from the residue outwards. Peptide text beside a SMILES is read from it. * marks the point of attachment. Melibiouronoyl(1β-O-dodecyl) = CCCCCCCCCCCCO[C@@H]1O[C@H](CO[C@H]2O[C@H](C(=O)*)[C@H](O)[C@H](O)[C@H]2O)[C@@H](O)[C@H](O)[C@H]1O; X1 = CCCCCCCCCCCCCCCCO[C@@H]1O[C@H](CO[C@H]2O[C@H](C(=O)*)[C@H](O)[C@H](O)[C@H]2O)[C@@H](O)[C@H](O)[C@H]1O; X2 = CCCCCCCCCCCCCCO[C@@H]1O[C@H](CO[C@H]2O[C@H](C(=O)*)[C@H](O)[C@H](O)[C@H]2O)[C@@H](O)[C@H](O)[C@H]1O; GlcA(1β-O-tetradecyl) = CCCCCCCCCCCCCCO[C@@H]1O[C@H](C(=O)*)[C@@H](O)[C@H](O)[C@H]1O; εLys = N[C@@H](CCCCN[*:1])C(=O)[*:2]; Aib = CC(C)(N)C(=O)O

Experiments:
human glucagon receptor = biological target: T1, human glucagon receptor (Homo sapiens, UniProt P47871); assay: DiscoveRx LeadHunter cellular assay, cAMP stimulation, glucagon receptor in CHO cells; assay type: cell-based
T1 construct: host or cells: CHO cells
T1 sequence (P47871 26-477): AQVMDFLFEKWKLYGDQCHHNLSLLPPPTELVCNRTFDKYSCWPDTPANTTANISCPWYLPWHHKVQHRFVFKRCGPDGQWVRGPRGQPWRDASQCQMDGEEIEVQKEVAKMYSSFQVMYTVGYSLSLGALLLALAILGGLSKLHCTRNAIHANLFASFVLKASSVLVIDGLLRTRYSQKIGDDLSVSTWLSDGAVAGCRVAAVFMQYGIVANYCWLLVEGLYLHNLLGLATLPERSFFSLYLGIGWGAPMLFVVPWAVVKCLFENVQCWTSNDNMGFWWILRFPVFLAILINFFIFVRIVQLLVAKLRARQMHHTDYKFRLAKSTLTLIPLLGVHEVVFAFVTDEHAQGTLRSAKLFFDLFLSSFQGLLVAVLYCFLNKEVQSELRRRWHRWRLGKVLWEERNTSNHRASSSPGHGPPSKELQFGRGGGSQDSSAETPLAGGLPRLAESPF

human GLP-1 receptor = biological target: T2, human GLP-1 receptor (Homo sapiens, UniProt P43220); assay: DiscoveRx LeadHunter cellular assay, cAMP stimulation, GLP-1 receptor in CHO cells; assay type: cell-based; settings: human GLP-1 receptor in CHO cells (DiscoveRx); read-out: EC50 cAMP GLP-1 R
T2 construct: host or cells: CHO cells
T2 sequence (P43220 24-463): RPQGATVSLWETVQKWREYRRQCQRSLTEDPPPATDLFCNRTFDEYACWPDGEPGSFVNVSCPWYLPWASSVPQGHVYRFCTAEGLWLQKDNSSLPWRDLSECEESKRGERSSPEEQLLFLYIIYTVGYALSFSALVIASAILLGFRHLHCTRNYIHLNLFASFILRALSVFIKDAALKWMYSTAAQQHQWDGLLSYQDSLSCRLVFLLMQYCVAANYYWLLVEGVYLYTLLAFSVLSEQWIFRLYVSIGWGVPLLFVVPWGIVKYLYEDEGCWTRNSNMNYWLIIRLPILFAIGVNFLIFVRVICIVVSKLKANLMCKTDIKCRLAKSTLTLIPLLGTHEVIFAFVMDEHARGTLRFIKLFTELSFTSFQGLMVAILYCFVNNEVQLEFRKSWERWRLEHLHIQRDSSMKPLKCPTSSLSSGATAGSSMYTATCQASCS

| EC50 (human glucagon receptor) | EC50 (human GLP-1 receptor) | EC50 (human glucagon receptor; read-out: EC50 cAMP Glucagon R, human glucagon receptor in CHO cells (DiscoveRx)) | SMILES |
| --- | --- | --- | --- |
| 0.78 nM | 0.25 nM | – | CCCCCCCCCCCCO[C@@H]1O[C@H](CO[C@H]2O[C@H](C(=O)NCCCC[C@@H]3NC(=O)[C@@H](NC(=O)[C@H](CC(=O)O)NC(=O)[C@H](CC(C)C)NC(=O)[C@H](Cc4ccc(O)cc4)NC(=O)[C@H](CCCCN)NC(=O)[C@H](CO)NC(=O)[C@H](Cc4ccc(O)cc4)NC(=O)[C@H](CC(=O)O)NC(=O)[C@H](CO)NC(=O)[C@@H](NC(=O)[C@H](Cc4ccccc4)NC(=O)[C@@H](NC(=O)CNC(=O)[C@H](CCC(N)=O)NC(=O)C(C)(C)NC(=O)[C@@H](N)Cc4c[nH]cn4)[C@@H](C)O)[C@@H](C)O)CCC(=O)NCCCC[C@@H](C(=O)N[C@@H](CCC(=O)O)C(=O)N[C@@H](Cc4ccccc4)C(=O)N[C@H](C(=O)N[C@@H](CCC(=O)O)C(=O)N[C@@H](Cc4c[nH]c5ccccc45)C(=O)N[C@@H](CC(C)C)C(=O)N[C@@H](CC(C)C)C(=O)N[C@@H](CCC(N)=O)C(=O)N[C@H](C(=O)O)[C@@H](C)O)[C@@H](C)CC)NC(=O)[C@H](C)NC(=O)[C@H](C)NC3=O)[C@H](O)[C@H](O)[C@H]2O)[C@@H](O)[C@H](O)[C@H]1O [EU-A1592] (H-H[Aib]QGTFTSDYSKYLDEK(Melibiouronoyl(1β-O-dodecyl))AAKEFIEWLLQT-OH; lactam 16-20; N-terminus assumed) |
| 0.16 nM | 0.015 nM | – | CCCCCCCCCCCCO[C@@H]1O[C@H](CO[C@H]2O[C@H](C(=O)NCCCC[C@H](N)C(=O)NCCCC[C@H](NC(=O)[C@@H](NC(=O)[C@H](Cc3ccccc3)NC(=O)[C@H](CCC(=O)O)NC(=O)[C@@H]3CCCCNC(=O)CC[C@H](NC(=O)[C@H](CC(=O)O)NC(=O)[C@H](CC(C)C)NC(=O)[C@H](Cc4ccc(O)cc4)NC(=O)[C@H](CCCCN)NC(=O)[C@H](CO)NC(=O)[C@H](Cc4ccc(O)cc4)NC(=O)[C@H](CC(=O)O)NC(=O)[C@H](CO)NC(=O)[C@@H](NC(=O)[C@H](Cc4ccccc4)NC(=O)[C@@H](NC(=O)CNC(=O)[C@H](CCC(N)=O)NC(=O)C(C)(C)NC(=O)[C@@H](N)Cc4c[nH]cn4)[C@@H](C)O)[C@@H](C)O)C(=O)N[C@@H](CCC(N)=O)C(=O)N[C@@H](C)C(=O)N[C@@H](C)C(=O)N3)[C@@H](C)CC)C(=O)N[C@@H](Cc3c[nH]c4ccccc34)C(=O)N[C@@H](CC(C)C)C(=O)N[C@@H](CC(C)C)C(=O)N[C@@H](CCC(N)=O)C(=O)N[C@H](C(=O)O)[C@@H](C)O)[C@H](O)[C@H](O)[C@H]2O)[C@@H](O)[C@H](O)[C@H]1O [EU-A1611] |
| 0.091 nM | 0.029 nM | – | CCCCCCCCCCCCO[C@@H]1O[C@H](C(=O)NCCCC[C@H](NC(=O)[C@@H](NC(=O)[C@H](Cc2ccccc2)NC(=O)[C@H](CCC(=O)O)NC(=O)[C@@H]2CCCCNC(=O)CC[C@H](NC(=O)[C@H](CC(=O)O)NC(=O)[C@H](CC(C)C)NC(=O)[C@H](Cc3ccc(O)cc3)NC(=O)[C@H](CCCCN)NC(=O)[C@H](CO)NC(=O)[C@H](Cc3ccc(O)cc3)NC(=O)[C@H](CC(=O)O)NC(=O)[C@H](CO)NC(=O)[C@@H](NC(=O)[C@H](Cc3ccccc3)NC(=O)[C@@H](NC(=O)CNC(=O)[C@H](CCC(N)=O)NC(=O)C(C)(C)NC(=O)[C@@H](N)Cc3c[nH]cn3)[C@@H](C)O)[C@@H](C)O)C(=O)N[C@@H](CCC(N)=O)C(=O)N[C@@H](C)C(=O)N[C@@H](C)C(=O)N2)[C@@H](C)CC)C(=O)N[C@@H](Cc2c[nH]c3ccccc23)C(=O)N[C@@H](CC(C)C)C(=O)N[C@@H](CC(C)C)C(=O)N[C@@H](CCC(N)=O)C(=O)N[C@H](C(=O)NCCOCCOCCOCCOCCOCCOCCOCCOCCC(=O)O)[C@@H](C)O)[C@@H](O)[C@H](O)[C@H]1O [EU-A1645] |
| 1.17 nM | 0.008 nM | – | CCCCCCCCCCCCCCCCO[C@@H]1O[C@H](CO[C@H]2O[C@H](C(=O)NCCCC[C@H](NC(=O)[C@H](C)NC(=O)[C@H](C)NC(=O)[C@H](CCC(N)=O)NC(=O)[C@H](CO)NC(=O)[C@H](CC(=O)O)NC(=O)[C@@H]3CCCCNC(=O)CC[C@H](NC(=O)[C@H](CC(=O)O)NC(=O)[C@H](CO)NC(=O)[C@@H](NC(=O)[C@H](Cc4ccccc4)NC(=O)[C@@H](NC(=O)CNC(=O)[C@H](CCC(N)=O)NC(=O)C(C)(C)NC(=O)[C@@H](N)Cc4c[nH]cn4)[C@@H](C)O)[C@@H](C)O)C(=O)N[C@@H](CO)C(=O)N[C@@H](CCCCN)C(=O)N[C@@H](Cc4ccc(O)cc4)C(=O)N3)C(=O)N[C@@H](CCC(=O)O)C(=O)N[C@@H](Cc3ccccc3)C(=O)N[C@H](C(=O)N[C@@H](CCC(N)=O)C(=O)N[C@@H](Cc3c[nH]c4ccccc34)C(=O)N[C@@H](CC(C)C)C(=O)N[C@@H](CC(C)C)C(=O)N[C@@H](CCC(N)=O)C(=O)N[C@H](C(N)=O)[C@@H](C)O)[C@@H](C)CC)[C@H](O)[C@H](O)[C@H]2O)[C@@H](O)[C@H](O)[C@H]1O [EU-A1730] (H-H[Aib]QGTFTSDESKYKDSQAAK(X1)EFIQWLLQT-NH2; lactam 10-14; N-terminus assumed) |
| 1.91 nM | 0.048 nM | – | CCCCCCCCCCCCCCO[C@@H]1O[C@H](C(=O)NCCCC[C@H](N)C(=O)NCCCC[C@H](NC(=O)[C@H](C)NC(=O)[C@H](C)NC(=O)[C@H](CCC(N)=O)NC(=O)[C@@H]2CCCCNC(=O)CC[C@H](NC(=O)[C@H](CO)NC(=O)[C@H](Cc3ccc(O)cc3)NC(=O)[C@H](CC(=O)O)NC(=O)[C@H](CO)NC(=O)[C@@H](NC(=O)[C@H](Cc3ccccc3)NC(=O)[C@@H](NC(=O)CNC(=O)[C@H](CCC(N)=O)NC(=O)C(C)(C)NC(=O)[C@@H](N)Cc3c[nH]cn3)[C@@H](C)O)[C@@H](C)O)C(=O)N[C@@H](Cc3ccc(O)cc3)C(=O)N[C@@H](CC(C)C)C(=O)N[C@@H](CC(=O)O)C(=O)N2)C(=O)N[C@@H](CCC(=O)O)C(=O)N[C@@H](Cc2ccccc2)C(=O)N[C@H](C(=O)N[C@@H](CCC(N)=O)C(=O)N[C@@H](Cc2c[nH]c3ccccc23)C(=O)N[C@@H](CC(C)C)C(=O)N[C@@H](CC(C)C)C(=O)N[C@@H](CCC(N)=O)C(=O)N[C@H](C(N)=O)[C@@H](C)O)[C@@H](C)CC)[C@@H](O)[C@H](O)[C@H]1O [EU-A1784] (H-H[Aib]QGTFTSDYSEYLDKQAAK([εLys-GlcA(1β-O-tetradecyl)])EFIQWLLQT-NH2; lactam 12-16; N-terminus assumed) |
| 2.08 nM | 0.774 nM | – | CCCCCCCCCCCCCCO[C@@H]1O[C@H](CO[C@H]2O[C@H](C(=O)N[C@@H](CCC(=O)N[C@@H](CCC(=O)NCCCC[C@H](NC(=O)[C@@H](NC(=O)[C@H](Cc3ccccc3)NC(=O)[C@H](CCC(=O)O)NC(=O)[C@@H]3CCCCNC(=O)CC[C@H](NC(=O)[C@H](CC(=O)O)NC(=O)[C@H](CC(C)C)NC(=O)[C@H](Cc4ccc(O)cc4)NC(=O)[C@H](CCCCN)NC(=O)[C@H](CO)NC(=O)[C@H](Cc4ccc(O)cc4)NC(=O)[C@H](CC(=O)O)NC(=O)[C@H](CO)NC(=O)[C@@H](NC(=O)[C@H](Cc4ccccc4)NC(=O)[C@@H](NC(=O)CNC(=O)[C@H](CCC(N)=O)NC(=O)C(C)(C)NC(=O)[C@@H](N)Cc4c[nH]cn4)[C@@H](C)O)[C@@H](C)O)C(=O)N[C@@H](CCC(N)=O)C(=O)N[C@@H](C)C(=O)N[C@@H](C)C(=O)N3)[C@@H](C)CC)C(=O)N[C@@H](Cc3c[nH]c4ccccc34)C(=O)N[C@@H](CC(C)C)C(=O)N[C@@H](CC(C)C)C(=O)N[C@@H](CCC(N)=O)C(=O)N[C@H](C(=O)O)[C@@H](C)O)C(=O)O)C(=O)O)[C@H](O)[C@H](O)[C@H]2O)[C@@H](O)[C@H](O)[C@H]1O [EU-A1622] |
| – | 0.043 nM | 0.097 nM | CCCCCCCCCCCCCCO[C@@H]1O[C@H](C(=O)N[C@@H](CCC(=O)NCCCC[C@H](NC(=O)[C@@H](NC(=O)[C@H](Cc2ccccc2)NC(=O)[C@H](CCC(=O)O)NC(=O)[C@@H]2CCCCNC(=O)CC[C@H](NC(=O)[C@H](CC(=O)O)NC(=O)[C@H](CC(C)C)NC(=O)[C@H](Cc3ccc(O)cc3)NC(=O)[C@H](CCCCN)NC(=O)[C@H](CO)NC(=O)[C@H](Cc3ccc(O)cc3)NC(=O)[C@H](CC(=O)O)NC(=O)[C@H](CO)NC(=O)[C@@H](NC(=O)[C@H](Cc3ccccc3)NC(=O)[C@@H](NC(=O)CNC(=O)[C@H](CCC(N)=O)NC(=O)C(C)(C)NC(=O)[C@@H](N)Cc3c[nH]cn3)[C@@H](C)O)[C@@H](C)O)C(=O)N[C@@H](CCC(N)=O)C(=O)N[C@@H](C)C(=O)N[C@@H](C)C(=O)N2)[C@@H](C)CC)C(=O)N[C@@H](Cc2c[nH]c3ccccc23)C(=O)N[C@@H](CC(C)C)C(=O)N[C@@H](CC(C)C)C(=O)N[C@@H](CCC(N)=O)C(=O)N[C@H](C(N)=O)[C@@H](C)O)C(=O)O)[C@@H](O)[C@H](O)[C@H]1O [EU-A1718] |
| 0.558 nM | 0.006 nM | – | CCCCCCCCCCCCCCO[C@@H]1O[C@H](CO[C@H]2O[C@H](C(=O)NCCCC[C@H](NC(=O)[C@H](C)NC(=O)[C@H](C)NC(=O)[C@H](CCC(N)=O)NC(=O)[C@H](CO)NC(=O)[C@H](CC(=O)O)NC(=O)[C@@H]3CCCCNC(=O)CC[C@H](NC(=O)[C@H](CC(=O)O)NC(=O)[C@H](CO)NC(=O)[C@@H](NC(=O)[C@H](Cc4ccccc4)NC(=O)[C@@H](NC(=O)CNC(=O)[C@H](CCC(N)=O)NC(=O)C(C)(C)NC(=O)[C@@H](N)Cc4c[nH]cn4)[C@@H](C)O)[C@@H](C)O)C(=O)N[C@@H](CO)C(=O)N[C@@H](CCCCN)C(=O)N[C@@H](Cc4ccc(O)cc4)C(=O)N3)C(=O)N[C@@H](CCC(=O)O)C(=O)N[C@@H](Cc3ccccc3)C(=O)N[C@H](C(=O)N[C@@H](CCC(N)=O)C(=O)N[C@@H](Cc3c[nH]c4ccccc34)C(=O)N[C@@H](CC(C)C)C(=O)N[C@@H](CC(C)C)C(=O)N[C@@H](CCC(N)=O)C(=O)N[C@H](C(N)=O)[C@@H](C)O)[C@@H](C)CC)[C@H](O)[C@H](O)[C@H]2O)[C@@H](O)[C@H](O)[C@H]1O [EU-A1729] (H-H[Aib]QGTFTSDESKYKDSQAAK(X2)EFIQWLLQT-NH2; lactam 10-14) |
